Assay results: paper PMC10928227, “Assessing biologic/toxicologic effects of extractables from plastic contact materials for advanced therapy manufacturing using cell painting assay and cytotoxicity screening” (Scientific Reports, 2024)
Where “and” joins values, the source holds several entries; their conditions need not be identical. Equal values may be shown once. Entries after “also recorded” stand apart in the source; their conditions may differ. Read-outs that look alike come from different tables or passages of the source. One block for each compound: values may come before it.

How the values were obtained:
[1] = tested on: murine mesodermal stem cells (C3H10T1/2); assay: Osteogenesis inhibition assay (OIA), purmorphamine-induced alkaline phosphatase expression; type: cell-based; conditions: for IC50: read-out: Osteogenesis inhibition assay IC50
Description: The osteogenesis inhibition assay was performed as described elsewhere[57]. Briefly, murine mesodermal stem cells (C3H10T1/2) were stimulated with purmorphamine (a Hedgehog agonist) to induce the expression of the osteogenesis marker alkaline phosphatase.

[2] = tested on: CHO DG44 cells; assay: Cytotoxicity testing with CHO cells, cell growth spiking experiments (ASTM E3231-19); type: cell-based, Chinese hamster; conditions: read-out: EC50 with CHO cells
Description: The cell line was adapted to grow in suspension without animal-derived supplements. […] This method determines effective concentrations (EC50) that cause 50% inhibition of cell growth. Data evaluation was carried out according to the method described in ASTM E3231-19, “Standard Guide for Cell Culture Growth Assessment of Single-Use Material[23]”. This test defines best practices using serum-free, chemically-defined cell culture medium to prevent false negative results.

[3] = tested on: U2OS human osteosarcoma cells; assay: Cell painting assay (CPA), morphological profiling and cell count; type: cell-based; conditions: for Percentage of changed features, AreaShape group: shape of the cells; for Lysosomotropic behavior in CPA: cluster assignment in words, N-Lauryldiethanolamine at 30 µM
Description: Initially, 5 µL U2OS medium were added to each well of a 384-well plate (PerkinElmer CellCarrier-384 Ultra). Subsequently, U2OS cell were seeded with a density of 1600 cells per well in 20 µL medium. The plate was incubated for 10 min at room temperature (RT), followed by an additional 4 h incubation (37 °C, 5% CO2). […] Incubation with compound was performed for 20 h (37 °C, 5% CO2). Subsequently, mitochondria were stained with Mito Tracker Deep Red (Thermo Fisher Scientific, Cat. No. M22426). The Mito Tracker Deep Red stock solution (1 mM) was diluted to a final concentration of 100 nM in prewarmed medium. The medium was removed from the plate leaving 10 µL residual volume and 25 µL of the Mito Tracker solution were added to each well. The plate was incubated for 30 min in darkness (37 °C, 5% CO2). To fix the cells, 7 µl of 18.5% formaldehyde in PBS were added, resulting in a final formaldehyde concentration of 3.7%. Subsequently, the plate was incubated for another 20 min in darkness (RT) and washed three times with 70 µL of PBS (Biotek Washer Elx405). Cells were permeabilized by addition of 25 µL 0.1% Triton X-100 to each well, followed by 15 min incubation (RT) in darkness. The cells were washed three times with PBS leaving a final volume of 10 µL. To each well 25 µL of a staining solution were added, which contains 1% BSA, 5 µL/mL Phalloidin (Alexa594 conjugate, Thermo Fisher Scientific, A12381), 25 µg/ml Concanavalin A (Alexa488 conjugate, Thermo Fisher Scientific, Cat. No. C11252), 5 µg/ml Hoechst 33342 (Sigma, Cat. No. B2261-25 mg), 1.5 µg/ml WGA-Alexa594 conjugate (Thermo Fisher Scientific, Cat. No. W11262) and 1.5 µM SYTO 14 solution (Thermo Fisher Scientific, Cat. No. S7576). The plate is incubated for 30 min (RT) in darkness and washed three times with 70 µL PBS. After the final washing step, the PBS was not aspirated. The plates were sealed and centrifuged for 1 min at 50 × g.
The images generated were processed with the CellProfiler package (https://cellprofiler.org/, version 3.0.0) on a computing cluster of the Max Planck Society to extract 1716 cell features per microscope site. The data was further aggregated as medians per well (9 sites → 1 well), then over the three replicates.
Out of the initial 1716 features, a subset of 579 highly reproducible and robust features was determined using a procedure based on the criteria described by Woehrmann et al.[54] Two biological repeats of one plate containing reference compounds were analysed. For every feature, its full profile over each whole plate was calculated. […] This procedure was performed once and served as the basis for all subsequent analyses.
The phenotypic profiles were compiled from the Z-scores of all individual cellular features, where the Z-score is a measure of how far away a data point is from a median value.
Specifically, Z-scores of test compounds were calculated relative to the Median of DMSO controls. Thus, the Z-score of a test compound defines how many MADs (Median Absolute Deviations) the measured value is away from the Median of the controls as illustrated by the following formula: Z-score=valuemeas.-MedianControls/MADControls
The phenotypic compound profile is then determined as the list of Z-scores of all features for one compound and is visualized via heatmap (examplarily see Fig. 2).

[4] = set-up: method as in ref EURL ECVAM genotoxicity and carcinogencity database, Madia F et al, 2020; conditions: scale Mutagenicity I (ECVAM), ref EURL ECVAM genotoxicity and carcinogencity database, Madia F et al, 2020; cited from earlier work
[5] = cited from earlier work
[6] = cited from earlier work; for Gene mutation, Mammalian Cell Gene Mutation Assay: T-lymphoma Cell Lines
[7] = tested on: CHO cells; set-up: method as in ref 22 (supplement); conditions: detrimental effect on cell growth; ref 22 (supplement); cited from earlier work
[8] = tested on: different industrial cell lines; set-up: method as in PMID 34411651, PMID 32535801, PMID 32748552; conditions: read-out: EC50 cell growth; cited from earlier work
[9] = 30 µM, U2OS, 20 h, percentage of altered features (579) vs DMSO controls
[10] = biosimilarity of CPA sub-profile to cluster
[11] = Database Genotoxicity & Carcinogenicity ECVAM, ref EURL ECVAM genotoxicity and carcinogencity database, Madia F et al, 2020
[12] = in Vivo, Database Genotoxicity & Carcinogenicity ECVAM, ref EURL ECVAM genotoxicity and carcinogencity database, Madia F et al, 2020
[13] = in Vivo, Database Genotoxicity OASIS, ref Yu F. Sasaki et. al., 2000, Critical Reviews in Toxicology,30(6),Pp.629-799
[14] = in Vitro, Chinese hamster, Chinese Hamster Lung (CHL), Duration 24÷48 h, Database Genotoxicity OASIS, ref Sofuni, T., Ed. (1998). Data Book of Chromosomal Aberration Test In Vitro, Revised Edition
[15] = in Vitro, Database Genotoxicity & Carcinogenicity ECVAM, ref EURL ECVAM genotoxicity and carcinogencity database, Madia F et al, 2020
[16] = in Vitro, Database Genotoxicity OASIS, ref Mutation Research 584 (2005) 1-256, Kirkland et al.
[17] = C3H10T1/2, purmorphamine, 96 h, alkaline phosphatase expression
[18] = CHO DG44, serum-free chemically defined medium, 72 h, 50% inhibition of cell growth

Compound: CCCCCCCCCc1ccc(O)cc1 [4-n-Nonylphenol]
IC50 ([1]; Mus musculus, C3H 10T1/2, 96 h): 3.8 µM
EC50 ([2]; Cricetulus griseus, CHO-DG44, 72 h): > 4500 nM
Induction in CPA [3, 9]: 17 (30 µM) %
Cell count ([3]; 50 µM, U2OS, 20 h): 91 (50 µM) % of control
Highest similarity to biological clusters: DNA synthesis [3, 10]: DNA synthesis (70%)

Compound: O=C1CCCCCN1 [105-60-2]
Genetic Toxicity, unscheduled DNA synthesis (UDS in Vivo) [4]: Negative
Chromosome aberration, in Vivo Mammalian Chromosome Aberration Test [5, 11]: Negative
Chromosome aberration, Micronucleus Assay [5, 12]: Negative
DNA damage and repair, COMET or Alkaline Elution [5, 12]: Negative
DNA and protein damage, Liver Micronucleus ([5]; in Vivo, Database Genotoxicity OASIS, ref T. Shirotori, M. Miyagawa, Proceeding of the 26th JEMS Annual Meeting, Hatano, 1997, p. 83): Negative
Chromosome aberration, Micronucleus Assay [5, 13]: Negative
DNA damage and repair, Single Cell Gel Electrophoresis (comet) Assay [5, 13]: Negative
Gene mutation, Bacterial Reverse Mutation Assay (e.g. Ames Test) ([6]; Salmonella typhimurium, No Strain Information, in Vitro, Database: Genotoxicity OASIS, ref Mutation Research 584 (2005) 1-256, Kirkland et al.): Negative
Gene mutation, Bacterial Reverse Mutation Assay (e.g. Ames Test) ([6]; Salmonella typhimurium, Strain TA 97, in Vitro, Database: Bacterial mutagenicity ISSSTY, ref CCRIS database,Toxnet databases (Romualdo Benigni)): Negative
Gene mutation, Bacterial Reverse Mutation Assay (e.g. Ames Test) ([6]; Salmonella typhimurium, Strain TA 98, in Vitro, Database: Bacterial mutagenicity ISSSTY, ref CCRIS database,Toxnet databases (Romualdo Benigni)): Negative
Gene mutation, Bacterial Reverse Mutation Assay (e.g. Ames Test) ([6]; Salmonella typhimurium, Strain TA 98, in Vitro, Database: Genotoxicity OASIS, ref P&G): Negative
Gene mutation, Bacterial Reverse Mutation Assay (e.g. Ames Test) ([6]; Salmonella typhimurium, Strain TA 100, in Vitro, Database: Bacterial mutagenicity ISSSTY, ref CCRIS database,Toxnet databases (Romualdo Benigni)): Negative
Gene mutation, Bacterial Reverse Mutation Assay (e.g. Ames Test) ([6]; Salmonella typhimurium, Strain TA 100, in Vitro, Database: Genotoxicity OASIS, ref P&G): Negative
Gene mutation, Bacterial Reverse Mutation Assay (e.g. Ames Test) ([6]; Salmonella typhimurium, Strain TA 102, in Vitro, Database: Bacterial mutagenicity ISSSTY, ref CCRIS database,Toxnet databases (Romualdo Benigni)): Negative
Gene mutation, Bacterial Reverse Mutation Assay (e.g. Ames Test) ([6]; Salmonella typhimurium, Strain TA 1535, in Vitro, Database: Bacterial mutagenicity ISSSTY, ref CCRIS database,Toxnet databases (Romualdo Benigni)): Negative
Gene mutation, Bacterial Reverse Mutation Assay (e.g. Ames Test) ([6]; Salmonella typhimurium, Strain TA 1535, in Vitro, Database: Genotoxicity OASIS, ref P&G): Negative
Gene mutation, Bacterial Reverse Mutation Assay (e.g. Ames Test) ([6]; Salmonella typhimurium, Strain TA 1537, in Vitro, Database: Bacterial mutagenicity ISSSTY, ref CCRIS database,Toxnet databases (Romualdo Benigni)): Negative
Gene mutation, Bacterial Reverse Mutation Assay (e.g. Ames Test) ([6]; Salmonella typhimurium, Strain TA 1537, in Vitro, Database: Genotoxicity OASIS, ref P&G): Negative
Gene mutation, Bacterial Reverse Mutation Assay (e.g. Ames Test) ([6]; Salmonella typhimurium, Strain TA 1538, in Vitro, Database: Bacterial mutagenicity ISSSTY, ref CCRIS database,Toxnet databases (Romualdo Benigni)): Negative
Chromosome aberration, in Vitro Mammalian Chromosome Aberration Test ([6]; in Vitro, Chinese hamster, Chinese Hamster Lung (CHL), Database Genotoxicity OASIS, ref ECHA, Registration dossier): Positive
Chromosome aberration, in Vitro Mammalian Chromosome Aberration Test [6, 14]: Negative
Chromosome aberration, Micronucleus Assay [6, 15]: Negative
Chromosome aberration, in Vitro Mammalian Chromosome Aberration Test [6, 15]: Negative
DNA damage and repair, COMET or Alkaline Elution [6, 15]: Negative
Gene mutation, Bacterial Reverse Mutation Assay (e.g. Ames Test) [6, 15]: Negative
Gene mutation, Mammalian Cell Gene Mutation (MLA HPRT) [6, 15]: Negative
Gene mutation, Bacterial Reverse Mutation Assay (e.g. Ames Test) ([6]; in Vitro, Salmonella typhimurium, No Strain Information, Database Genotoxicity OASIS, ref Journal of Medicinal Chemistry 48 (1), pp. 312-32, 25, Kazius J, McGuire R., Bursi R): Negative
Gene mutation, Bacterial Reverse Mutation Assay (e.g. Ames Test) ([6]; in Vitro, Salmonella typhimurium, Strain TA 97, Database Genotoxicity OASIS, ref P&G): Negative
Gene mutation, Bacterial Reverse Mutation Assay (e.g. Ames Test) ([6]; in Vitro, Salmonella typhimurium, Strain TA 98, Database Genotoxicity OASIS, ref P&G): Negative
Gene mutation, Bacterial Reverse Mutation Assay (e.g. Ames Test) ([6]; in Vitro, Salmonella typhimurium, Strain TA 100, Database Genotoxicity OASIS, ref P&G): Negative
Gene mutation, Bacterial Reverse Mutation Assay (e.g. Ames Test) ([6]; in Vitro, Salmonella typhimurium, Strain TA 102, OECD Guideline 471, Database Genotoxicity OASIS, ref CCRIS database,Toxnet databases): Negative
Gene mutation, Bacterial Reverse Mutation Assay (e.g. Ames Test) ([6]; in Vitro, Salmonella typhimurium, Strain TA 1535, Database Genotoxicity OASIS, ref P&G): Negative
Gene mutation, Bacterial Reverse Mutation Assay (e.g. Ames Test) ([6]; in Vitro, Salmonella typhimurium, Strain TA 1537, Database Genotoxicity OASIS, ref P&G): Negative
Gene mutation, Bacterial Reverse Mutation Assay (e.g. Ames Test) ([6]; in Vitro, Salmonella typhimurium, Strain TA 1538, Database Genotoxicity OASIS, ref P&G): Negative
Gene mutation, Mammalian Cell Gene Mutation Assay [6, 16]: Negative
Genetic Toxicity, unscheduled DNA synthesis (UDS in Vitro) ([6]; in Vitro, scale Mutagenicity I (ECVAM), ref EURL ECVAM genotoxicity and carcinogencity database, Madia F et al, 2020): Negative

Compound: Cc1cc(C(C)(C)C)c(O)c(C(C)(C)C)c1 [128-37-0]
Chromosome aberration, in Vivo Mammalian Chromosome Aberration Test [5, 11]: Negative
Chromosome aberration, Micronucleus Assay [5, 12]: Negative
DNA damage and repair, COMET or Alkaline Elution [5, 12]: Positive
DNA damage and repair, DNA Adducts [5, 12]: Negative
Chromosome aberration, Micronucleus Assay ([5]; in Vivo, Database Genotoxicity OASIS, ref Bruce, W. R., & Heddle, J. A. (1979), Can. J. Genet. Cytol. 21, 319-334): Negative
DNA damage and repair, Single Cell Gel Electrophoresis (comet) Assay [5, 13]: Negative
Chromosome aberration, in Vitro Mammalian Chromosome Aberration Test ([6]; in Vitro, Chinese hamster, Chinese Hamster Lung (CHL), Duration 6÷18 h, Database Genotoxicity OASIS, ref Sofuni, T., Ed. (1998). Data Book of Chromosomal Aberration Test In Vitro, Revised Edition): Negative
Chromosome aberration, in Vitro Mammalian Chromosome Aberration Test [6, 14]: Negative
Chromosome aberration, in Vitro Mammalian Chromosome Aberration Test [6, 15]: Equivocal
Gene mutation, Mammalian Cell Gene Mutation (MLA HPRT) [6, 15]: Positive
Chromosome aberration, in Vitro Mammalian Chromosome Aberration Test ([6]; in Vitro, No Strain Information, Database Genotoxicity OASIS, ref Mutation Research 584 (2005) 1-256, Kirkland et al.): Negative
Gene mutation, Mammalian Cell Gene Mutation Assay [6, 16]: Positive

IC50 [1, 17]: ≥ 10 µM
Compound: CCCCCCCCCCCCN(CCO)CCO [N-Lauryldiethanolamine]
Toxic concentration in the osteogenesis inhibition assay ([1]; C3H10T1/2, excluded from dose-response measurement): ≥ 10 µM
EC50 [2, 18]: 2100 nM
Induction in CPA ([3]; 3 µM, U2OS, 20 h, percentage of altered features (579) vs DMSO controls): 61% and 61 (3 µM) %
U2OS cell count compared to the control ([3]; 30 µM, after 24 h incubation): 50%
Cell count ([3]; 50 µM, U2OS, 20 h): 11 (50 µM) % of control
Percentage of changed features, all channels ([3]; Fig. 6, 3 µm): 50 to 90%
Percentage of changed features, AreaShape group ([3]; Fig. 6): all features
Concentration from which strong inhibitory effect on cell growth starts ([3]; U2OS, CPA): ≥ 30 µM
Highest similarity to biological clusters: Cholesterol homeostasis [3, 10]: 88%
Lysosomotropic behavior in CPA [3]: some lysosomotropic behavior
Induction in CPA ([3]; tested concentrations ≤ 50 µM, concentration not given at the place, active threshold 5%): > 5%

Compound: Cc1cc(C)c(C(=O)P(=O)(c2ccccc2)c2ccccc2)c(C)c1 [TPO, diphenyl(2,4,6-trimethylbenzoyl)phosphine oxide]
IC50 ([1]; Mus musculus, C3H 10T1/2, C3H10T1/2, purmorphamine, 96 h, alkaline phosphatase expression): 5 µM
EC50 ([2]; Cricetulus griseus, CHO DG44, serum-free chemically defined medium, 72 h, 50% inhibition of cell growth): 4400 nM
Risk based on in vitro genotoxicity data from database (from QSAR-toolbox) ([6]; not checked for in vivo relevance, ref QSAR Toolbox 4.5 database): No alert
Induction in CPA [3, 9]: 11 (30 µM) %
Cell count ([3]; 50 µM, U2OS, 20 h): 94 (50 µM) % of control
Percentage of changed features, nuclei (Hoechst) channel ([3]; Fig. 6): approx. 5%
Percentage of changed features, AreaShape group ([3]; Fig. 6): ~30%
Highest similarity to biological clusters: HDAC [3, 10]: 77%
Lysosomotropic behavior in CPA [3]: lysosomotropic behavior; also recorded: Weak lysosomotropic

IC50 [1, 17]: 6.8 µM
Compound: CC(C)(C)c1ccc(OP(=O)(O)Oc2ccc(C(C)(C)C)cc2C(C)(C)C)c(C(C)(C)C)c1 [bDtBPP, bis(2,4-di-tert-butylphenyl)phosphate]
EC50 [7]: < 1000 nM
EC50 [8]: < 1000 nM
EC50 [2, 18]: 600 nM
Cell count ([3]; 50 µM, U2OS, 20 h): 87 (50 µM) % of control
Induction in CPA ([3]; 50 µM, U2OS, 20 h, percentage of altered features (579) vs DMSO controls): 17 (50 µM) %
Percentage of changed features, AreaShape group ([3]; Fig. 6): approx. 20%
Highest similarity to biological clusters: DNA synthesis [3, 10]: DNA synthesis (65%)
Impact on cell growth of U2OS cells ([3]; concentrations ≤ 50 µM, in words): no impact on cell growth
